Reference: patent publication US11053204B2, “Pyrimidinyloxy benzene derivatives as herbicides” (FMC Corporation, priority 2015, dated 2021)

What was measured:
Type in all cases: in vivo
[1] = test system: velvetleaf (Abutilon theophrasti); test: Test C postemergence, plant response rating
Description: (§1) Seeds of plant species selected from blackgrass (Alopecurus myosuroides), ryegrass, Italian (Italian ryegrass, Lolium multiflorum), wheat (winter wheat, Triticum aestivum), galium (catchweed bedstraw, Galium aparine), corn (Zea mays), crabgrass, large (large crabgrass, Digitaria sanguinalis), foxtail, giant (giant foxtail, Setaria faberii), johnsongrass (Sorghum halepense), lambsquarters (Chenopodium album), morningglory (Ipomoea coccinea), nutsedge, yellow (yellow nutsedge, Cyperus esculentus), pigweed (Amaranthus retroflexus), ragweed (common ragweed, Ambrosia elatior), soybean (Glycine max), barnyardgrass (Echinochloa crus-galli), oilseed rape (Brassica napus), pigweed, palmer (palmer pigweed, Amaranthus palmeri), waterhemp (common waterhemp, Amaranthus rudis), velvetleaf (Abutilon theophrasti), kochia (Kochia scoparia), surinam grass (Brachiaria decumbens), nightshade (eastern black nightshade, Solanum ptycanthum), wild poinsettia (Euphorbia heterophylla), windgrass (Apera spica-venti), and oat, wild (wild oat Avena fatua), were planted into a blend of loam soil and sand or a silt loam soil and treated preemergence with test chemicals formulated in a non-phytotoxic solvent mixture which included a surfactant.
(§2) At the same time, plants selected from these crop and weed species and also chickweed (common chickweed, Stellaria media), buckwheat, wild (wild buckwheat, Polygonum convolvulus), wild mustard (Sinapis arvensis), field poppy (Papaver rhoeas), field violet (Viola arvensis), geranium, cutleaf (cutleaf geranium, Geranium dissectum), Canada thistle (Cirsium arvense), and speedwell (bird's-eye speedwell, Veronica persica), were planted in pots containing Sunshine Redi-Earth® planting medium comprising spaghnum peat moss, vermiculite, starter nutrients and dolomitic limestone and treated with postemergence applications of test chemicals formulated in the same manner. Plants ranged in height from 2 to 18 cm (1- to 4-leaf stage) for postemergence treatments. Treated plants and controls were maintained in a greenhouse for 13 to 15 d, after which time all species were compared to controls and visually evaluated. Plant response ratings, summarized in Table C, are based on a scale of 0 to 100 where 0 is no effect and 100 is complete control. A dash (-) response means no test result.

[2] = test system: wheat (winter wheat, Triticum aestivum); test: Test C postemergence, plant response rating
Description: as §1, §2

[3] = test system: morningglory (Ipomoea coccinea); test: Test C postemergence, plant response rating; settings: for Morningglory plant response rating: scale 0 to 100 (0 no effect, 100 complete control)
Description: as §1, §2

[4] = test system: oilseed rape (Brassica napus); test: Test C postemergence, plant response rating; settings: for Oilseed Rape plant response rating: scale 0 to 100 (0 no effect, 100 complete control)
Description: as §1, §2

[5] = test system: foxtail, giant (giant foxtail, Setaria faberii); test: Test C postemergence, plant response rating; settings: for Foxtail, Giant plant response rating: scale 0 to 100 (0 no effect, 100 complete control)
Description: as §1, §2

[6] = test system: blackgrass (Alopecurus myosuroides); test: Test C postemergence, plant response rating; settings: for Plant response rating, Blackgrass: scale 0 to 100; for Blackgrass plant response rating: scale 0 to 100 (0 no effect, 100 complete control)
Description: as §1, §2

[7] = test system: velvetleaf (Abutilon theophrasti); test: Test C preemergence, plant response rating; settings: Preemergence
Method in brief: (§3)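 Greenhouse plants rated visually against untreated controls 13–15 d after treatment, scale 0 = no effect to 100 = complete control. Postemergence sprays went onto potted plants 2–18 cm tall (1–4 leaves); preemergence sprays onto soil freshly sown in loam–sand or silt loam, chemicals formulated in non-phytotoxic solvent with surfactant.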

[8] = test system: lambsquarters (Chenopodium album); test: Test C preemergence, plant response rating; settings: Preemergence
Method in brief: as §3

[9] = test system: wheat (winter wheat, Triticum aestivum); test: Test C preemergence, plant response rating; settings: Preemergence
Method in brief: as §3

[10] = test system: morningglory (Ipomoea coccinea); test: Test C preemergence, plant response rating; settings: Preemergence
Method in brief: as §3

[11] = test system: ryegrass, Italian (Italian ryegrass, Lolium multiflorum); test: Test C preemergence, plant response rating; settings: Preemergence
Method in brief: as §3

[12] = test system: oilseed rape (Brassica napus); test: Test C preemergence, plant response rating; settings: Preemergence
Method in brief: as §3

[13] = test system: nutsedge, yellow (yellow nutsedge, Cyperus esculentus); test: Test C preemergence, plant response rating; settings: Preemergence
Method in brief: as §3

corn (Zea mays) = test: Test C preemergence, plant response rating; settings: Preemergence
Method in brief: as §3

[14] = test system: foxtail, giant (giant foxtail, Setaria faberii); test: Test C preemergence, plant response rating; settings: Preemergence
Method in brief: as §3

[15] = test system: blackgrass (Alopecurus myosuroides); test: Test C preemergence, plant response rating; settings: Preemergence
Method in brief: as §3

[16] = test system: waterhemp (common waterhemp, Amaranthus rudis); test: Test C preemergence, plant response rating; settings: Preemergence
Method in brief: as §3

[17] = test system: crabgrass, large (large crabgrass, Digitaria sanguinalis); test: Test C preemergence, plant response rating; settings: Preemergence
Method in brief: as §3

soybean (Glycine max) = test: Test C preemergence, plant response rating; settings: Preemergence
Method in brief: as §3

[18] = test system: ragweed (common ragweed, Ambrosia elatior); test: Test C preemergence, plant response rating; settings: Preemergence
Method in brief: as §3

[19] = 125 g ai/ha, scale 0 to 100 (0 no effect, 100 complete control)

## N#Cc1cccc(Oc2ncc(Cl)cn2)c1COCCC(F)(F)F [Compound 80]
[1]; 16 g ai/ha, scale of 0 to 100
  Plant response rating, Velvetleaf: 30
[1]; 31 g ai/ha, scale 0 to 100
  Plant response rating, Velvetleaf: 35
[1]; [19]
  Velvetleaf plant response rating: 55
[2]; 16 g ai/ha, scale of 0 to 100
  Plant response rating, Wheat: 0
[2]; 31 g ai/ha, scale 0 to 100
  Plant response rating, Wheat: 0
[2]; [19]
  Wheat plant response rating: 15
[3]; 16 g ai/ha, scale of 0 to 100
  Plant response rating, Morningglory: 25
[3]; 31 g ai/ha, scale 0 to 100
  Plant response rating, Morningglory: 35
[3]; 62 g ai/ha
  Morningglory plant response rating: 55
[3]; 125 g ai/ha
  Morningglory plant response rating: 60
[4]; 16 g ai/ha, scale of 0 to 100
  Plant response rating, Oilseed Rape: 50
[4]; 31 g ai/ha, scale 0 to 100
  Plant response rating, Oilseed Rape: 60
[4]; 62 g ai/ha
  Oilseed Rape plant response rating: 65
[4]; 125 g ai/ha
  Oilseed Rape plant response rating: 70
[5]; 16 g ai/ha, scale of 0 to 100
  Plant response rating, Foxtail, Giant: 5
[5]; 31 g ai/ha, scale 0 to 100
  Plant response rating, Foxtail, Giant: 10
[5]; 62 g ai/ha
  Foxtail, Giant plant response rating: 10
[5]; 125 g ai/ha
  Foxtail, Giant plant response rating: 15
[6]; 16 g ai/ha
  Plant response rating, Blackgrass: 0
[6]; 31 g ai/ha
  Plant response rating, Blackgrass: 5
[6]; 62 g ai/ha
  Blackgrass plant response rating: 5
[6]; 125 g ai/ha
  Blackgrass plant response rating: 25
[7]; 125 g ai/ha, scale of 0 to 100
  Plant response rating, Velvetleaf: 100
[7]; 31 g ai/ha, scale 0 to 100
  Plant response rating, Velvetleaf: 55
[7]; 62 g ai/ha, scale 0 to 100
  Plant response rating, Velvetleaf: 70
[8]; 125 g ai/ha, scale of 0 to 100
  Plant response rating, Lambsquarters: 98
[8]; 31 g ai/ha, scale 0 to 100
  Plant response rating, Lambsquarters: 70
[8]; 62 g ai/ha, scale 0 to 100
  Plant response rating, Lambsquarters: 95
[9]; 125 g ai/ha, scale of 0 to 100
  Plant response rating, Wheat: 15
[9]; 31 g ai/ha, scale 0 to 100
  Plant response rating, Wheat: 0
[9]; 62 g ai/ha, scale 0 to 100
  Plant response rating, Wheat: 0
[10]; 125 g ai/ha, scale of 0 to 100
  Plant response rating, Morningglory: 75
[10]; 31 g ai/ha, scale 0 to 100
  Plant response rating, Morningglory: 20
[10]; 62 g ai/ha, scale 0 to 100
  Plant response rating, Morningglory: 40
[11]; 125 g ai/ha, scale of 0 to 100
  Plant response rating, Ryegrass, Italian: 25
[11]; 31 g ai/ha, scale 0 to 100
  Plant response rating, Ryegrass, Italian: 0
[11]; 62 g ai/ha, scale 0 to 100
  Plant response rating, Ryegrass, Italian: 5
[12]; 125 g ai/ha, scale of 0 to 100
  Plant response rating, Oilseed Rape: 100
[12]; 31 g ai/ha, scale 0 to 100
  Plant response rating, Oilseed Rape: 80
[12]; 62 g ai/ha, scale 0 to 100
  Plant response rating, Oilseed Rape: 70
[13]; 125 g ai/ha, scale of 0 to 100
  Plant response rating, Nutsedge, Yellow: 35
[13]; 31 g ai/ha, scale 0 to 100
  Plant response rating, Nutsedge, Yellow: 0
[13]; 62 g ai/ha, scale 0 to 100
  Plant response rating, Nutsedge, Yellow: 0
Corn (Zea mays); 62 g ai/ha, scale of 0 to 100
  Plant response rating, Corn: 5
Corn (Zea mays); 125 g ai/ha, scale of 0 to 100
  Plant response rating, Corn: 20
Corn (Zea mays); 16 g ai/ha, scale 0 to 100
  Plant response rating, Corn: 0
Corn (Zea mays); 31 g ai/ha, scale 0 to 100
  Plant response rating, Corn: 5
[14]; 62 g ai/ha, scale of 0 to 100
  Plant response rating, Foxtail, Giant: 85
[14]; 125 g ai/ha, scale of 0 to 100
  Plant response rating, Foxtail, Giant: 100
[14]; 31 g ai/ha, scale 0 to 100
  Plant response rating, Foxtail, Giant: 40
[15]; 62 g ai/ha, scale of 0 to 100
  Plant response rating, Blackgrass: 70
[15]; 125 g ai/ha, scale of 0 to 100
  Plant response rating, Blackgrass: 90
[15]; 16 g ai/ha, scale 0 to 100
  Plant response rating, Blackgrass: 5
[15]; 31 g ai/ha, scale 0 to 100
  Plant response rating, Blackgrass: 10
[16]; 125 g ai/ha, scale of 0 to 100
  Plant response rating, Waterhemp: 100
[16]; 31 g ai/ha, scale 0 to 100
  Plant response rating, Waterhemp: 100
[16]; 62 g ai/ha, scale 0 to 100
  Plant response rating, Waterhemp: 100
[17]; 62 g ai/ha, scale of 0 to 100
  Plant response rating, Crabgrass, Large: 100
[17]; 125 g ai/ha, scale of 0 to 100
  Plant response rating, Crabgrass, Large: 98
[17]; 16 g ai/ha, scale 0 to 100
  Plant response rating, Crabgrass, Large: 55
[17]; 31 g ai/ha, scale 0 to 100
  Plant response rating, Crabgrass, Large: 80
Soybean (Glycine max); 125 g ai/ha, scale of 0 to 100
  Plant response rating, Soybean: 85
Soybean (Glycine max); 31 g ai/ha, scale 0 to 100
  Plant response rating, Soybean: 20
Soybean (Glycine max); 62 g ai/ha, scale 0 to 100
  Plant response rating, Soybean: 40
[18]; 125 g ai/ha, scale of 0 to 100
  Plant response rating, Ragweed: 20
[18]; 31 g ai/ha, scale 0 to 100
  Plant response rating, Ragweed: 0
[18]; 62 g ai/ha, scale 0 to 100
  Plant response rating, Ragweed: 5
